Assay results from US12139486B2, “Octahydro fused azadecalin glucocorticoid receptor modulators” (Corcept Therapeutics, Inc., priority 2013, dated 2024).

Assays:
glucocorticoid receptor = molecular target: T1, glucocorticoid receptor (Homo sapiens, UniProt P04150); assay: HepG2 Tyrosine Aminotransferase (TAT) Assay; assay type: cell-based
T1 construct: endogenous in cells; host or cells: HepG2
T1 sequence (P04150 1-777): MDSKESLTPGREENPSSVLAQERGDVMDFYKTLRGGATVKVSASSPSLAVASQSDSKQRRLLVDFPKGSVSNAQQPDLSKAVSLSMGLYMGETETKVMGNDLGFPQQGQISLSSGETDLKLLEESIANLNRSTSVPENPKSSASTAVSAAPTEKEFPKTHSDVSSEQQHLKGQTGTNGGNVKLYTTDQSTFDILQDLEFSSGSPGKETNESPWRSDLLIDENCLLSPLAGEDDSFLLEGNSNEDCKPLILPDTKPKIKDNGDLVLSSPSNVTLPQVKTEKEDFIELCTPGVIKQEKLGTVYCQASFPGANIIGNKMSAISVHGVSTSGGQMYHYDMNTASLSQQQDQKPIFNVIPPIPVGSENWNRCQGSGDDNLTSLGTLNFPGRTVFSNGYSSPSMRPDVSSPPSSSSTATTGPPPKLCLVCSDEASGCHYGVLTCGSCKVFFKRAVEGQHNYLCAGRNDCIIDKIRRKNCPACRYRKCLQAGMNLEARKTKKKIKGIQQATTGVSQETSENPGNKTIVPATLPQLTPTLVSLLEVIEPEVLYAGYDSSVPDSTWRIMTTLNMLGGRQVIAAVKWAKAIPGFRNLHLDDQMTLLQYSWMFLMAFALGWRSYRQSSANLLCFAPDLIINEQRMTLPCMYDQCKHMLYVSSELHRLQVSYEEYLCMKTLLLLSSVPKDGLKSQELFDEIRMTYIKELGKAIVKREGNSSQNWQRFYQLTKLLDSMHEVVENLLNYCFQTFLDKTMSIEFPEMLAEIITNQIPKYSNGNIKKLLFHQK
Description: Glucocorticoid mediated activation of TAT occurs by transactivation of glucocorticoid response elements in the TAT promoter by glucocorticoid receptor-agonist complex.
HepG2 cells were cultured using MEME media supplemented with 10% (v/v) foetal bovine serum; 2 mM L-glutamine and 1% (v/v) NEAA at 37° C., 5%/95% (v/v) CO2/air.
Compounds were serially half log diluted in 100% (v/v) dimethylsulphoxide from a 10 mM stock.
HepG2 cells were then lysed with 30 μl of cell lysis buffer containing a protease inhibitor cocktail for 15 minutes at 4° C. […] After 2 hours incubation at 37° C. the reaction was terminated by the addition of 15 μl of 10 M aqueous potassium hydroxide solution, and the plates incubated for a further 30 minutes at 37° C.
[compound] and fitting the data to a 4 parameter logistic equation.

human recombinant GR = molecular target: T2, human recombinant GR (Homo sapiens, UniProt P04150); assay: Human Glucocorticoid Receptor (GR) Fluorescence Polarisation (FP) Binding Assay; conditions: Ki from IC50 by ligand depletion correction; displacement of Fluorome GS Red
T2 construct: purchased PanVera P2812
T2 sequence (P04150 1-777): T1 sequence (P04150 1-777)
Description: The following is a description of a FP assay for measuring compound inhibition of labelled glucocorticoid binding to the human recombinant GR.
The binding affinity of test compounds was determined using a FP binding assay using human recombinant GR (PanVera P2812) and a fluorescent labelled glucocorticoid ligand (Fluorome GS Red) (PanVera P2894). The presence of inhibitors prevents the formation of a GS Red/GR complex resulting in a decrease in the measured polarisation value. The change in polarisation value in the presence of test compounds is used to calculate the binding affinity of the compound for GR.
This assay was performed in 384 well, black, round-bottom, polypropylene micro titre plates in a final volume of 20 μl. The assay contained 5 μl 1 nM GR (final concentration), 5 μl 0.5 nM Fluorome GS Red (final concentration) in the presence of 10p test compounds. Positive control wells (high polarisation) receive, 10 μl 2% (v:v) DMSO vehicle (1% (v/v) final concentration)+5 μl 1 nM GR and 5 μl 0.5 nM Fluorome GS Red. […] Assay blank background wells (used for normalisation) receive 15 μl 1×GS screening buffer+5 μl GR.
For the IC50 determination (concentration of compound that displaces 50% of the bound GS Red), compounds were tested at eight different concentrations in duplicate in two independently performed experiments. Compounds were prepared as solubilised solids at 10 mM in DMSO. On the day of assay, an 8 point half-log serial dilution (55 μl DMSO+25 μl compound solution) was prepared. A 1:50 dilution (1 μl compound solution+49 μl 1×GR screening buffer) was prepared for each compound. The compounds were prepared at 2× final assay concentration.
The plates were mixed and incubated for 4 hour at room temperature. FP was measured using an Envision Excite plate reader with 535 nm excitation and 590 nm emission interference filters.
Milli-polarisation (mP) values were calculated using the below equation: mP=1000*(S−G*P)/(S+G*P) where S and P are assay blank background subtracted fluorescence units, G=G-factor (1.07).
Compound IC50 values were calculated by plotting a [compound] v. % inhibition curve and fitting the data to a 4-parameter logistic fit equation.
10×GR screening buffer (100 mM potassium phosphate pH 7.4, 200 mM Na2MoO4, 1 mM EDTA, 20% (v/v) DMSO). To prepare 1×GR screening buffer, combine 1 ml 10×GR screening buffer (PanVera P2814)+1 ml stabilising peptide (PanVera P2815)+7.95 ml 4° C. MQ water. Add 50p 1M DTT, vortex and place on ice until use.

Row | SMILES | Ki (glucocorticoid receptor) | Ki (human recombinant GR)
1 | CC(C)n1ncc(S(=O)(=O)N2CC[C@H]3Cc4c(cnn4-c4ccc(F)cc4)C[C@]3(C(=O)c3cc(C(F)(F)F)ccn3)C2)n1 [Example 2AD, ((4aR,8aS)-1-(4-fluorophenyl)-6-((2-isopropyl-2H-1,2,3-triazol-4-yl)sulfonyl)-4,4a,5,6,7,8,8a,9-octahydro-1H-pyrazolo[3,4-g]isoquinolin-4a-yl)(4-(trifluoromethyl)pyridin-2-yl)methanone] | < 20 nM | < 0.5 nM
2 | O=C(c1ccccn1)[C@]12Cc3cnn(-c4ccc(F)cc4)c3C[C@@H]1CCN(S(=O)(=O)c1ccc(C(F)(F)F)cc1)C2 [Example 1A, ((4aR,8aS)-1-(4-fluorophenyl)-6-((4-(trifluoromethyl)phenyl)sulfonyl)-4,4a,5,6,7,8,8a,9-octahydro-1H-pyrazolo[3,4-g]isoquinolin-4a-yl)(pyridin-2-yl)methanone] | 20 to 100 nM | 0.5 to 1 nM
3 | Cn1nncc1S(=O)(=O)N1CC[C@H]2Cc3c(cnn3-c3ccc(F)cc3)C[C@]2(C(=O)c2cc(C(F)(F)F)ccn2)C1 [Example 2X, ((4aR,8aS)-1-(4-fluorophenyl)-6-((1-methyl-1H-1,2,3-triazol-5-yl)sulfonyl)-4,4a,5,6,7,8,8a,9-octahydro-1H-pyrazolo[3,4-g]isoquinolin-4a-yl)(4-(trifluoromethyl)pyridin-2-yl)methanone] | > 100 nM | > 1 nM
4 | Cn1ccc(S(=O)(=O)N2CC[C@H]3Cc4c(cnn4-c4ccc(F)cc4)C[C@]3(C(=O)c3cc(C(F)(F)F)ccn3)C2)n1 [Example 2I, ((4aR,8aS)-1-(4-fluorophenyl)-6-((1-methyl-1H-pyrazol-3-yl)sulfonyl)-4,4a,5,6,7,8,8a,9-octahydro-1H-pyrazolo[3,4-g]isoquinolin-4a-yl)(4-(trifluoromethyl)pyridin-2-yl)methanone] | 20 to 100 nM | 0.5 to 1 nM
5 | CCCn1cc(S(=O)(=O)N2CC[C@H]3Cc4c(cnn4-c4ccc(F)cc4)C[C@]3(C(=O)c3nccs3)C2)cn1 [Example 2E, ((4aR,8aS)-1-(4-fluorophenyl)-6-((1-propyl-1H-pyrazol-4-yl)sulfonyl)-4,4a,5,6,7,8,8a,9-octahydro-1H-pyrazolo[3,4-g]isoquinolin-4a-yl)(thiazol-2-yl)methanone] | < 20 nM | < 0.5 nM
6 | Cn1ncc(S(=O)(=O)N2CC[C@H]3Cc4c(cnn4-c4ccc(F)cc4)C[C@]3(C(=O)c3ccccn3)C2)n1 [Example 2AC, ((4aR,8aS)-1-(4-fluorophenyl)-6-((2-methyl-2H-1,2,3-triazol-4-yl)sulfonyl)-4,4a,5,6,7,8,8a,9-octahydro-1H-pyrazolo[3,4-g]isoquinolin-4a-yl)(pyridin-2-yl)methanone] | 20 to 100 nM | > 1 nM
7 | Cn1cc(S(=O)(=O)N2CC[C@H]3Cc4c(cnn4-c4ccc(F)cc4)C[C@]3(C(=O)c3cc(C(F)(F)F)ccn3)C2)cn1 [Example 2H, ((4aR,8aS)-1-(4-fluorophenyl)-6-((1-methyl-1H-pyrazol-4-yl)sulfonyl)-4,4a,5,6,7,8,8a,9-octahydro-1H-pyrazolo[3,4-g]isoquinolin-4a-yl)(4-(trifluoromethyl)pyridin-2-yl)methanone] | 20 to 100 nM | > 1 nM
8 | Cn1ncc(S(=O)(=O)N2CC[C@H]3Cc4c(cnn4-c4ccc(F)cc4)C[C@]3(C(=O)c3cc(C(F)(F)F)ccn3)C2)n1 [Example 2C, ((4aR,8aS)-1-(4-fluorophenyl)-6-((2-methyl-2H-1,2,3-triazol-4-yl)sulfonyl)-4,4a,5,6,7,8,8a,9-octahydro-1H-pyrazolo[3,4-g]isoquinolin-4a-yl)(4-(trifluoromethyl)pyridin-2-yl)methanone] | < 20 nM | 0.5 to 1 nM
9 | CCCn1cc(S(=O)(=O)N2CC[C@H]3Cc4c(cnn4-c4ccc(F)cc4)C[C@]3(C(=O)c3cc(C(F)(F)F)ccn3)C2)cn1 [Example 2D, ((4aR,8aS)-1-(4-fluorophenyl)-6-((1-propyl-1H-pyrazol-4-yl)sulfonyl)-4,4a,5,6,7,8,8a,9-octahydro-1H-pyrazolo[3,4-g]isoquinolin-4a-yl)(4-(trifluoromethyl)pyridin-2-yl)methanone] | < 20 nM | < 0.5 nM
10 | CCn1ncc(S(=O)(=O)N2CC[C@H]3Cc4c(cnn4-c4ccc(F)cc4)C[C@]3(C(=O)c3ccccn3)C2)n1 [Example 2AB, ((4aR,8aS)-6-((2-ethyl-2H-1,2,3-triazol-4-yl)sulfonyl)-1-(4-fluorophenyl)-4,4a,5,6,7,8,8a,9-octahydro-1H-pyrazolo[3,4-g]isoquinolin-4a-yl)(pyridin-2-yl)methanone] | 20 to 100 nM | < 0.5 nM
